# Results as given in US20080161393A1, “Use of prodrugs of GABA analogs for treating disease” (priority 2006, published 2008).
# What was measured:
# [1] = Randomized, crossover, fed/fasted single-dose pharmacokinetic study of oral sustained release tablets of compound (3) in healthy adult subjects; assay type: in vivo, human
# Method: A randomized, crossover, fed/fasted single-dose study of the safety, tolerability, and pharmacokinetics of oral administration of 1-{[(α-isobutanoyloxyethoxy)carbonyl]aminomethyl}-1-cyclohexane acetic acid (3) in healthy adult subjects was conducted. The oral sustained release dosage form of Example 6 (uncoated) was used in this study. The study was designed to evaluate the performance of this formulation in humans in comparison with the commercial gabapentin capsule formulation (Neurontin®, Pfizer). Twelve healthy adult volunteers (7 males and 5 females) participated in the study. Mean body weight was 75.6 kg. All subjects received two different treatments in a random order with a one-week washout between treatments. The two treatments were: A) a single oral dose of Example 6 tablets (2×600 mg) after an overnight fast; and B) a single oral dose of Example 6 tablets (2×600 mg) after a high fat breakfast.
# Blood and plasma samples were collected from all subjects prior to dosing, and at 0.5, 1, 1.5, 2, 3, 4, 6, 8, 12, 18, 24, and 36 hours after dosing. Urine samples were collected from all subjects prior to dosing, and complete urine output was obtained at the 0-4 h, 4-8 h, 8-12 h, 12-18 h, 18-24 h, and 24-36 h intervals after dosing. Blood samples were quenched immediately with methanol and stored frozen at […]. Sample aliquots were prepared for analysis of gabapentin and compound (3) using sensitive and specific LC/MS/MS methods.
# [2] = cited from earlier work
SMILES,AUC of compound (3) in blood as % of corresponding AUC of gabapentin in blood ([1]; fasted subjects) [%],Maximum intact compound (3) concentration as % of corresponding peak gabapentin concentration ([1]; fasted subjects),AUC of compound (3) in blood as % of corresponding AUC of gabapentin in blood ([1]; fed subjects),Maximum intact compound (3) concentration as % of corresponding peak gabapentin concentration ([1]; fed subjects),Typical Tmax of immediate release gabapentin [2] [h]
"CC(OC(=O)NCC1(CC(=O)O)CCCCC1)OC(=O)C(C)C (stereo not drawn) [compound (3), 1-{[(α-Isobutanoyloxyethoxy)carbonyl]aminomethyl}-1-Cyclohexane Acetic Acid]",0.3,approximately 1.0%,less than 0.1%,approximately 0.3%,
NCC1(CC(=O)O)CCCCC1 [gabapentin],,,,,2 to 4
